Source: BindingDB's records for doi:10.1021/acschembio.7b00489 (Michigan State University, 2017)
“And” between values parts separate entries of the source, which are not always exact repeats. Equal entries are not always repeated. Structures can show the parent of a compound that is named as a salt.

Columns and labels:
[1] = target: Proteasome subunit alpha type-6 (Homo sapiens, UniProt P60900); test: Proteasome Activity Assay; conditions: pH 7.5; 37 °C
Experimental: Activity assays were carried out in a 200 uL reaction volume. Different concentrations of test compounds were added to a black flat/clear bottom 96-well plate containing 1 nM of either human constitutive 20S proteasome or 26S proteasome, in 50 mM Tris-HCl at pH 7.5 and allowed to sit for 10 min at RT. Fluorogenic substrates were then added and the enzymatic activity measured at 37 °C on a SpectraMax M5e spectrometer by measuring the change in fluorescence unit per minute for 1 h at 380−460 nm. The fluorescence units for the vehicle control were set at a 100%, and the ratio of drug-treated sample set to that of vehicle control was used to calculate the fold change in enzymatic activity.

[2] = target: Dopamine D2 receptor (Homo sapiens); test: Human embryonic kidney (HEK-293) cells were plated in 100 mm plates and transfected with pcDNA3.1-D2R using Lipofectamine 2000 (Invitrogen; Waltham, MA) according to the manufacturer's instructions. Radioligand binding assays were performed 24 h after transfection essentially as described.

Proteasome subunit alpha type-6, sequence (P60900 whole entry): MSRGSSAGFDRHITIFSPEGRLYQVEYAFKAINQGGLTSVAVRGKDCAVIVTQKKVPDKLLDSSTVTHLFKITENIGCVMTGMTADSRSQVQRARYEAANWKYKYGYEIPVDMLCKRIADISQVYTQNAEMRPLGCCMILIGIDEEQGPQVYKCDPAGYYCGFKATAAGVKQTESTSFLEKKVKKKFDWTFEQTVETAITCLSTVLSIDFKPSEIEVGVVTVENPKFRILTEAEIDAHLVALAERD

SMILES | EC50 [1] | Ki [2] [µM]
O=S(=O)(O)CCCN1c2ccccc2Sc2ccc(Cl)cc21 [CPZ analog, 3] | > 25 µM | –
O=C(O)C#CCN1c2ccccc2Sc2ccc(Cl)cc21 [CPZ analog, 6] | > 25 µM | > 250
CN(C)CCCN1c2ccccc2CCc2ccc(Cl)cc21 [CLOMIPRAMINE HYDROCHLORIDE] | 12.4 µM | –
CN1CCCC(CC2c3ccccc3Sc3ccccc32)C1 (centres undefined) [METHIXENE] | 11.9 µM | –
COC(=O)c1ccc(CN2c3ccccc3Sc3ccc(Cl)cc32)cc1 [CPZ analog, 8] | 15.6 µM | > 250
CN(C)CCCN1c2ccccc2Sc2ccc(Cl)cc21 [[3-(2-Chloro-phenothiazin-10-yl)-propyl]-dimethyl-amine(Chlorpromazine)] | 14.8 µM and 9.9 µM | –
CC(C)CCCN1c2ccccc2Sc2ccc(Cl)cc21 [CPZ analog, 1] | > 25 µM | > 250
O=S(=O)(O)CCCCCN1c2ccccc2Sc2ccc(Cl)cc21 [CPZ analog, 4] | > 25 µM | –
CSc1ccc2c(c1)N(CC[C@@H]1CCCCN1C)c1ccccc1S2 [10-[2-(1-Methyl-piperidin-2-yl)-ethyl]-2-methylsulfanyl-10H-phenothiazine (thioridazine)] | 12 µM | –

Second part, the molecule after the results:

EC50 [1] | Ki [2] [µM] | SMILES
7.8 µM | – | CN(C)CCCN1c2ccccc2Sc2ccc(C(F)(F)F)cc21 [TRIFLUPROMAZINE]
6.4 µM | > 250 | O=C(O)c1ccc(CN2c3ccccc3Sc3ccc(Cl)cc32)cc1 [CPZ analog, 7]
8.9 µM | > 2.97 | Clc1ccc2c(c1)N(CCCCN1CCOCC1)c1ccccc1S2 [CPZ analog, 5]
6.3 µM | > 250 | O=S(=O)(O)CCCCN1c2ccccc2Sc2ccc(Cl)cc21 [CPZ analog, 2]
